Source: patent US20260232707A1, “METABOLIC INHIBITORS AND METHODS OF MAKING AND USING THEREOF” (UNIVERSITY OF MIAMI, priority 2023, published 2026)
“Also recorded” adds a separate entry of the source.

Legend:
[1] = mouse, in vivo
Description: Thus, the experiment investigated the efficacy of T-Mito-SilylDCA-NPs in an in vivo mouse model in combination with a cisplatin prodrug, Platin-M^20-21. […] Thus for this study, luciferase tagged MDA-MB-231BR^Luc cells in Balb/c nude mice were used. The experiment implanted MDA-MB-231BR^Luc cells in the right flank of N=7 female Balb/c nude mice (FIG. 5A). […] Once the tumors were established, these animals were treated with a combination of T-Platin-M-NP and T-Mito-SilylDCA-NP in a sequential manner to inhibit first OXPHOS with T-Platin-M-NP^20 and simultaneous inhibition of resulting glycolysis T-Mito-SilylDCA-NP. This study included two groups: Group 1, saline with n=3 animals and group 2, combination of T-Platin-M-NPs and T-Mito-SilylDCA-NPs with n=4 animals (FIG. 5A). The tumor bearing animals were treated with saline or combination therapeutics for 4 weeks following a biweekly treatment regimen which involved tail i.v injections of 10 mg/kg dose of T-Platin-M-NP with respect to Platin-M 24 h prior to 30 mg/kg dose of T-Mito-Silyl-DCA-NP with respect to Mito-SilylDCA. […] All the images were taken at the same aperture and field of view was kept at 22.4 cm. […]
The present study administered T-Mito-SilylDCA to mice via intravenous injection and quantified the accumulation of NPs using ICP-MS analyses.

[2] = test system: 4T1 breast cancer cell line; assay: Seahorse glycostress assay (ECAR); assay type: cell-based, murine; conditions: 4T1 cells, 6 h; for glycolytic inhibitory properties compared to NaDCA: 200 μM vs NaDCA 600 μM; for glycolysis inhibition (ECAR): compared with control group
Description: FIGS. 3A-3C show cellular glycolysis inhibition by Mito-SilylDCA. Glycolytic inhibition efficacy of Mito-SilylDCA was investigated along with the components used for synthesizing Mito-SilylDCA. (FIG. 3A) Chemical structures of TPP-(CH2)5—COOH), methoxyl(octadecyldimethyl)silane, sodium dichloroacetate (NaDCA), Mito-DCA, and Mito-SilylDCA. (FIG. 3B) Extracellular acidification rate (ECAR) measured in 4T1, murine breast cancer cell line, upon treatment with the compounds mentioned in A. The cells were pre-treated with the test articles at the following concentration: TPP-(CH2)5—COOH (200 μM), methoxy (octadecyldimethyl)silane (200 μM), NaDCA (600 μM), Mito-DCA (200 μM), or Mito-Silyl-DCA (200 μM), for 6 h. Port injections for the seahorse glycostress assay included glucose (10 mM) in port A, oligomycin (1 μM) in port B, and 2-DG (50 mM) in port C. (FIG. 3C) Graphical representation quantifying the change in glycolysis, glycolytic capacity, and glycolytic reserve parameters upon treatment with test articles. The data in FIG. 3C was generated as an average from 3 independent biological replicates. The statistical significance between the treatment groups was measured by ordinary one-way analysis of variance (ANOVA) using multiple comparison.
Cellular glycolysis inhibition by Mito-SilylDCA. Glycolysis inhibitory efficacy of Mito-Silyl-DCA was investigated in 4T1 breast cancer cell line which is known to be aggressive and highly glycolytic in nature with an overexpression of PDK1.^6 The Seahorse glycostress assay was performed to understand the metabolic fluxes of glycolysis. The 4T1 cells grown in normoxia were treated with TPP-(CH2)5—COOH) (200 μM), methoxyl(octadecyldimethyl)silane (200 μM), NaDCA (600 μM), Mito-DCA (200 μM), or Mito-Silyl-DCA (200 μM) for 6 h followed by washing and returning the cells to a glucose-free medium (FIG. 3A). The extracellular acidification rate (ECAR) traces were then monitored in response to the sequential administration of glucose, oligomycin, and 2-deoxy-D-glucose (2-DG) to assess glycolysis, glycolytic capacity, and glycolytic reserve, respectively. […] The data shown here are average from three independent biological replicates.
Glycolysis inhibition in highly glycolytic cells. This example documented inhibition of glycolysis in 4T1 cells by Mito-SilylDCA using Seahorse glycostress assay (FIG. 3B). The Seahorse glycostress assay was performed to check the metabolic fluxes of glycolysis. 4T1 cells were treated with TPP-hexanoic acid (200 μM), methoxyl(octadecyldimethyl)silane (200 μM), sodium dichloroacetate (DCA) (600 μM), Mito-DCA (200 μM), or Mito-SilylDCA (200 μM) for 6 h followed by washout and returned to glycose-free medium. The extracellular acidification rate (ECAR) was monitored in response to the sequential administration of glucose, oligomycin, and 2-deoxy-D-glucose (2-DG) to assess glycolysis, glycolytic capacity, and glycolytic reserve, respectively (FIG. 3C).

[3] = Stability at different pH values by HPLC and LC-MS (Example 1); assay type: physicochemical; conditions: for degradation / stability at acidic pH: acidic pH (4.0); for stability in alkaline conditions: alkaline conditions (pH 9.5); for stability in alkaline conditions / hydrolysis in neutral conditions: DMF-water (2/1, v/v), room temperature; for hydrolysis in neutral conditions: neutral conditions (pH 7.4)
Description: FIGS. 2A-2B. Stability of Mito-SilylDCA at different pH values. Traces of HPLC plots of (FIG. 2A) Mito-SilylDCA and (FIG. 2B) Mito-DCA in solutions of different pH values along with plots of percent of the compound remained with time. A solution of Mito-SilylDCA or Mito-DCA in DMF-water (2/1, v/v) was incubated for different times (12 h, 24 h, and 48 h) at different pH environments (4.0, 7.4, and 9.5) at room temperature.
Stability of Mito-SilylDCA. A combination of HPLC and LC-MS analytical techniques were employed to understand the stability of Mito-SilylDCA in different physiological environments. A solution of Mito-SilylDCA or Mito-DCA in DMF-water (2/1, v/v) was incubated for 12, 24, and 48 h at different pH environments of 4.0, 7.4, and 9.5 at room temperature and the degradation behavior of the compounds was analyzed with HPLC and LC-MS (FIGS. 2A and 2B). […] After 12 h, more than 60% of compounds are decomposed at pH 7.4, which should be due to the hydrolysis of DCA and the silyl chain. […] Both Mito-DCA and Mito-SilylDCA were unstable in alkaline conditions and the compounds decomposed easily. […] The better stability of Mito-SilylDCA compared to Mito-DCA would be beneficial for the long-term storage and further application in biological environment.

[4] = Chemical stability at different pH by HPLC and LC-MS (Example 2); assay type: physicochemical; conditions: DMF/water (1/1, v/v), 24 h, pH 4.5, 5.5, 6.5, 7.4, 8.5, room temperature
Description: Stability of Mito-SilylDCA. With Mito-SilylDCA in hand, the chemical stability was checked to ensure the efficacy of drug in different physiological environments. A mixed solution of Mito-SilylDCA in DMF/water (1/1, v/v) was incubated for 24 h in different pH environment (4.5, 5.5, 6.5, 7.4, 8.5) at room temperature. Then the solutions were measured with HPLC and LC-MS to check the degradation behavior of the compounds.

CCCCCCCCCCCCCCCCCC[Si](C)(C)OCC(COC(=O)C(Cl)Cl)(COC(=O)C(Cl)Cl)NC(=O)CCCCC[P+](c1ccccc1)(c1ccccc1)c1ccccc1 [Mito-SilylDCA]
accumulation in the tumor [1]: a significant portion of Mito-SilylDCA accumulated in the tumor
biodistribution: organs in which present [1]: liver, tumor mass, brain, kidney, and spleen
glycolytic inhibitory properties compared to NaDCA [2]: significantly higher
glycolysis inhibition capability compared to Mito-DCA ([2]; 200 μM): not significantly decreased
glycolysis inhibition (ECAR) ([2]; 200 μM): significant inhibition of glycolysis
decomposition compared with Mito-DCA ([3]; acidic conditions (pH 4.0), period of 24 h): slower than Mito-DCA
degradation / stability at acidic pH [3]: relatively slow degradation; also recorded: most stable at an acidic pH
stability in alkaline conditions [3]: unstable
hydrolysis in neutral conditions [3]: hydrolyzed in a short time
chemical stability [4]: stable in neural and weak acidic conditions

O=C(O)CCCCC[P+](c1ccccc1)(c1ccccc1)c1ccccc1.[Br-] [TPP-(CH2)5—COOH), (5-carboxypentyl)triphenylphosphonium bromide, reference compound]
glycolysis inhibition (ECAR) ([2]; 200 μM): No detectable changes in glycolysis levels

CCCCCCCCCCCCCCCCCC[Si](C)(C)OC [methoxyl(octadecyldimethyl)silane, reference compound]
glycolysis inhibition (ECAR) ([2]; 200 μM): No detectable changes in glycolysis levels

O=C(CCCCC[P+](c1ccccc1)(c1ccccc1)c1ccccc1)NC(COC(=O)C(Cl)Cl)(COC(=O)C(Cl)Cl)COC(=O)C(Cl)Cl [Mito-DCA, reference compound]
glycolytic inhibitory properties compared to NaDCA [2]: significantly higher
glycolysis inhibition (ECAR) ([2]; 200 μM): significant glycolysis inhibition
degradation / stability at acidic pH [3]: relatively slow degradation
stability in alkaline conditions [3]: unstable
hydrolysis in neutral conditions [3]: hydrolyzed in a short time
